Test results from publication PMC8251711 (Angewandte Chemie (International Ed. in English), 2021).

Target: LAT1 (Homo sapiens, UniProt Q01650)
Test: [3H]-gabapentin uptake competition assay in LN229 cells
Type: cell-based
Conditions: read-out: IC50, [3H]-gabapentin uptake competition

Chain of LAT1 (Q01650 whole entry): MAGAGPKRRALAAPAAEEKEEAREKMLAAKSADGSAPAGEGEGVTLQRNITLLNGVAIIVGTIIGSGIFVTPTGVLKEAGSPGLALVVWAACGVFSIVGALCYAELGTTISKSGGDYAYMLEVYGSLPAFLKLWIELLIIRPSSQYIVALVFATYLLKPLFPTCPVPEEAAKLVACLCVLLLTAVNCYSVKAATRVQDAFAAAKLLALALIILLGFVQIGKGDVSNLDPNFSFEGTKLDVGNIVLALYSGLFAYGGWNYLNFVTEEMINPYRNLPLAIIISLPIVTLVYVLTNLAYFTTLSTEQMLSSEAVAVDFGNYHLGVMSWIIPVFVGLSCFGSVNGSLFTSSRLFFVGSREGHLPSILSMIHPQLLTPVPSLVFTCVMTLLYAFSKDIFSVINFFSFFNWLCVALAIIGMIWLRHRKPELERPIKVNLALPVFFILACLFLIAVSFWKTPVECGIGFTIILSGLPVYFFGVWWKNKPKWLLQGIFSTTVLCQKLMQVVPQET
Chain of LAT1 (P08195 102-630 partner): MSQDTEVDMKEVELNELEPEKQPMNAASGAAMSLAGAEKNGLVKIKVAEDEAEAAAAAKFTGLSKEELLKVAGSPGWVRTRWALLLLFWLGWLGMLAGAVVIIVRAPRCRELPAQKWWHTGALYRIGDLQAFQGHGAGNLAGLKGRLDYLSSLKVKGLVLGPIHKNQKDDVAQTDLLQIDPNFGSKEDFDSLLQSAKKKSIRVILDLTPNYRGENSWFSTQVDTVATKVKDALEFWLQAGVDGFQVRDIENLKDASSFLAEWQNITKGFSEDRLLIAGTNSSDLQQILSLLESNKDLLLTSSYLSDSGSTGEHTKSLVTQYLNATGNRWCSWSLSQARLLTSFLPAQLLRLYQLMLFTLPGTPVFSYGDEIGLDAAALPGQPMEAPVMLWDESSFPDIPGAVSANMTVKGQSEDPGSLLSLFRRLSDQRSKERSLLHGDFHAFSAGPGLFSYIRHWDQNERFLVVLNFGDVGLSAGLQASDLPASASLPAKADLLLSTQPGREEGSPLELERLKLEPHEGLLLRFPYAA

IC50: 29 nM
Compound: Nc1cc(COc2c(Cl)cc(C[C@H](N)C(=O)O)cc2Cl)c2oc(-c3ccccc3)nc2c1 [JPH203]
